In patent US11485742B2, “2-azaspiro[3.4]octane derivatives as M4 agonists” (NOVARTIS AG, priority 2019, dated 2022) one finds EC50 and Emax data, which are given here for 16 molecules.

Experiment [1] deals with T1, human cloned CHRM2 receptor (Homo sapiens, UniProt P08172).
T1 construct: expressed in transfected cells; host or cells: CHO-K1 (M2_CHO)
T1 sequence (P08172 1-466): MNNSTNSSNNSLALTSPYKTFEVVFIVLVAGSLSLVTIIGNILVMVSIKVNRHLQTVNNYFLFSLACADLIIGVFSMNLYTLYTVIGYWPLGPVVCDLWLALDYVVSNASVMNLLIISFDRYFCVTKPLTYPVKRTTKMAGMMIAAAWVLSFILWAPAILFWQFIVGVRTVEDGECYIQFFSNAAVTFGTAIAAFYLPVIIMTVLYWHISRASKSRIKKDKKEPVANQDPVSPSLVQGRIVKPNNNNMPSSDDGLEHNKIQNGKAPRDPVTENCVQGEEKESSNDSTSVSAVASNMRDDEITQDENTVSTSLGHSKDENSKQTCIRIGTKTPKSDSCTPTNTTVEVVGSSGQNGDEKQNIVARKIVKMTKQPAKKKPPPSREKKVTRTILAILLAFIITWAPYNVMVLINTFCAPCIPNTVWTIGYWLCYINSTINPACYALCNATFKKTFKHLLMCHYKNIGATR
Description: CHRM2 Ca++ Flux Assay (M2_CHO cells, agonist mode). Conditions: M2 CHO cells; for EC50: agonist mode, geometric mean if tested more than once, read-out: M2 FDSS EC50; for Emax: Percent Activity (PA) measured to EC100 of Carbachol, read-out: M2 FDSS PA %. Type of experiment: cell-based. The procedure, abridged:
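CHO-K1 cells stably expressing human CHRM2 were plated overnight at 12K cells/well and loaded with Ca++ dye for 1–2 h. They were then held 60 minutes in HBSS −Ca/−Mg, 20 mM HEPES, 2.5 mM probenecid, 20 μM ATP. Agonist-mode Ca++ flux was read over 3 minutes. Four-parameter fits of triplicates gave percent activity relative to carbachol EC100.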

Experiment [2] addresses T2, human cloned CHRM4 receptor (Homo sapiens, UniProt P08173).
T2 construct: expressed in transfected cells; host or cells: CHO-K1 (M4_CHO)
T2 sequence (P08173 1-479): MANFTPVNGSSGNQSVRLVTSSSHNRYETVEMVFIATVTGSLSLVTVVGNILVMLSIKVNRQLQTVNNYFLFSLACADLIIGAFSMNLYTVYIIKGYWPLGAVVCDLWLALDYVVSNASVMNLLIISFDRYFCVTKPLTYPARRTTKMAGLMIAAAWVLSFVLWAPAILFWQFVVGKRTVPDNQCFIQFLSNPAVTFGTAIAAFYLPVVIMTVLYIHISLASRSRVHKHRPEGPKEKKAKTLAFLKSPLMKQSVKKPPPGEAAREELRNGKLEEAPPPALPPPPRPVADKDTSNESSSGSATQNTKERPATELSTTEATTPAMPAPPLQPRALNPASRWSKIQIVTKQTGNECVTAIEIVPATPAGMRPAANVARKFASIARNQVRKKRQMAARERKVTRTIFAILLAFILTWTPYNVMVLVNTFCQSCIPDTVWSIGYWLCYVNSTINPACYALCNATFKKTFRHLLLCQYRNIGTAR
Description: CHRM4 Ca++ Flux Assay (M4_CHO cells, agonist mode). Type of experiment: cell-based. Conditions: for Emax: Percent Activity (PA), read-out: M4 FDSS PA %; for EC50: geometric mean if tested more than once, read-out: M4 FDSS EC50. The procedure, abridged:
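CHO-K1 cells stably expressing human M4 were dye-loaded, then held 60 min at RT in Ca/Mg-free HBSS buffer with 20 μM ATP. Ca++ traces were recorded over 3 min after an 11-point compound series in triplicate, agonist mode, with a four-parameter fit. Percent activity is relative to the carbachol EC100; repeat tests are geometric means.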

SMILES strings stand for the structures.

`COc1ccccc1C1CCN([C@@H]2COC3(C2)CN(c2nnco2)C3)CC1` [Example 1Q, (S)-7-(4-(2-methoxyphenyl)piperidin-1-yl)-2-(1,3,4-oxadiazol-2-yl)-5-oxa-2-azaspiro[3.4]octane]: the EC50 was 3810 nM in experiment [1] and 52 nM in experiment [2]. Further, the Emax in experiment [1] stood at 16%; in experiment [2], 79%.
Taken in the same sequence, the figures for `Fc1ccc(OCc2ncccn2)c(C2CCN([C@@H]3COC4(C3)CN(c3nnco3)C4)CC2)c1` [Example 2I, (S)-7-(4-(5-fluoro-2-(pyrimidin-2-ylmethoxy)phenyl)piperidin-1-yl)-2-(1,3,4-oxadiazol-2-yl)-5-oxa-2-azaspiro[3.4]octane] were 109 nM, 12 nM, 35% and 77%.
In the same order, the values of `CC(C)(O)CCOc1cc(F)ccc1C1CCN([C@@H]2COC3(C2)CN(c2nncs2)C3)CC1` [Example 5V, (S)-4-(2-(1-(2-(1,3,4-thiadiazol-2-yl)-5-oxa-2-azaspiro[3.4]octan-7-yl)piperidin-4-yl)-5-fluorophenoxy)-2-methylbutan-2-ol] are greater than 25000 nM, 250 nM, 0% and 40%.
In the same order, the values of `COCCOc1ccc(F)cc1C1CCN([C@@H]2COC3(C2)CN(c2nnco2)C3)CC1` [Example 1L, (S)-7-(4-(5-fluoro-2-(2-methoxyethoxy)phenyl)piperidin-1-yl)-2-(1,3,4-oxadiazol-2-yl)-5-oxa-2-azaspiro[3.4]octane] are greater than 25000 nM, 99 nM, 0% and 74%.
For `c1ccc(C2CCN([C@@H]3COC4(C3)CN(c3nnco3)C4)CC2)c(O[C@@H]2CCOC2)c1` [Example 1O, (S)-2-(1,3,4-oxadiazol-2-yl)-7-(4-(2-(((R)-tetrahydrofuran-3-yl)oxy)phenyl)piperidin-1-yl)-5-oxa-2-azaspiro[3.4]octane], in experiment [1], the EC50 worked out at 611 nM and the Emax came out at 36%. In addition, in experiment [2], the Emax is 89% and the EC50 worked out at 26 nM.
Taken in the same sequence, the figures for `Fc1ccc(OC2CCOCC2)c(C2CCN([C@@H]3COC4(C3)CN(c3ncon3)C4)CC2)c1` [Example 6A, (S)-7-(4-(5-fluoro-2-((tetrahydro-2H-pyran-4-yl)oxy)phenyl)piperidin-1-yl)-2-(1,2,4-oxadiazol-3-yl)-5-oxa-2-azaspiro[3.4]octane] were 623 nM, 18%, 74% and 12 nM.
Taken in the same sequence, the figures for `COc1ccc(F)cc1C1CCN([C@@H]2COC3(C2)CN(c2nnco2)C3)CC1` [Example 1V, (S)-7-(4-(5-fluoro-2-methoxyphenyl)piperidin-1-yl)-2-(1,3,4-oxadiazol-2-yl)-5-oxa-2-azaspiro[3.4]octane] were 598 nM, 35%, 83% and 35 nM.
Taken in the same sequence, the figures for `c1ccc(C2CCN([C@@H]3COC4(C3)CN(c3nnco3)C4)CC2)c(-c2cncnc2)c1` [Example 1W, (S)-2-(1,3,4-oxadiazol-2-yl)-7-(4-(2-(pyrimidin-5-yl)phenyl)piperidin-1-yl)-5-oxa-2-azaspiro[3.4]octane] were 527 nM, 68%, 89% and 12 nM.
`c1ccc(C2CCN([C@@H]3COC4(C3)CN(c3nnco3)C4)CC2)c(OC2COC2)c1` [Example 1P, (S)-2-(1,3,4-oxadiazol-2-yl)-7-(4-(2-(oxetan-3-yloxy)phenyl)piperidin-1-yl)-5-oxa-2-azaspiro[3.4]octane]: the EC50 in experiment [1] was determined as 1090 nM; in experiment [2] it was 28 nM. Besides, the Emax in experiment [1] came to 51%; in experiment [2], 94%.
In the same order, the values of `Fc1ccc(OC2CC3(COC3)C2)c(C2CCN([C@@H]3COC4(C3)CN(c3nnco3)C4)CC2)c1` [Example 2L, (S)-7-(4-(2-((2-oxaspiro[3.3]heptan-6-yl)oxy)-5-fluorophenyl)piperidin-1-yl)-2-(1,3,4-oxadiazol-2-yl)-5-oxa-2-azaspiro[3.4]octane] are 1070 nM, 50 nM, 14% and 81%.
In the same order, the values of `CC(C)(O)COc1ccccc1C1CCN([C@@H]2COC3(C2)CN(c2ncns2)C3)CC1` [Example 5Y, (S)-1-(2-(1-(2-(1,2,4-thiadiazol-5-yl)-5-oxa-2-azaspiro[3.4]octan-7-yl)piperidin-4-yl)phenoxy)-2-methylpropan-2-ol] are greater than 25000 nM, 109 nM, 0% and 64%.
Taken in the same sequence, the figures for `Fc1ccc(OC2COC2)c(C2CCN([C@@H]3COC4(C3)CN(c3nnco3)C4)CC2)c1` [Example 1A, (S)-7-(4-(5-fluoro-2-(oxetan-3-yloxy)phenyl)piperidin-1-yl)-2-(1,3,4-oxadiazol-2-yl)-5-oxa-2-azaspiro[3.4]octane] were 536 nM, 8 nM, 32% and 82%.
As to `COC(C)(C)CCOc1ccc(F)cc1C1CCN([C@@H]2COC3(C2)CN(c2nnco2)C3)CC1` [Example 1K, (S)-7-(4-(5-fluoro-2-(3-methoxy-3-methylbutoxy)phenyl)piperidin-1-yl)-2-(1,3,4-oxadiazol-2-yl)-5-oxa-2-azaspiro[3.4]octane], in experiment [1], the EC50 was greater than 25000 nM and the Emax was found to be 0%. Moreover, in experiment [2], the Emax turned out to be 58% and the EC50 was 97 nM.
In the same order, the values of `Fc1ccc(OCC2CCOCC2)c(C2CCN([C@@H]3COC4(C3)CN(c3nnco3)C4)CC2)c1` [Example 1J, (S)-7-(4-(5-fluoro-2-((tetrahydro-2H-pyran-4-yl)methoxy)phenyl)piperidin-1-yl)-2-(1,3,4-oxadiazol-2-yl)-5-oxa-2-azaspiro[3.4]octane] are 874 nM, 35%, 79% and 86 nM.
Turning to `Fc1ccc(OC2COC2)c(C2CCN([C@@H]3COC4(C3)CN(c3ncon3)C4)CC2)c1` [Example 6B, (S)-7-(4-(5-fluoro-2-(oxetan-3-yloxy)phenyl)piperidin-1-yl)-2-(1,2,4-oxadiazol-3-yl)-5-oxa-2-azaspiro[3.4]octane], in experiment [1], the EC50 came out at 390 nM and the Emax stood at 38%. Besides, in experiment [2], the Emax was 79% and the EC50 worked out at 8 nM.
Taken in the same sequence, the figures for `CCc1nnc(COc2ccc(F)cc2C2CCN([C@@H]3COC4(C3)CN(c3nnco3)C4)CC2)s1` [Example 2T, (S)-7-(4-(2-((5-ethyl-1,3,4-thiadiazol-2-yl)methoxy)-5-fluorophenyl)piperidin-1-yl)-2-(1,3,4-oxadiazol-2-yl)-5-oxa-2-azaspiro[3.4]octane] were 41 nM, 44%, 89% and 2 nM.
